Laboratory results as given in US20250214951A1, “3-PHENYLISOXAZOLE DERIVATIVE, AND PHARMACEUTICAL COMPOSITION FOR PREVENTING OR TREATING EYE DISEASE, CONTAINING SAME AS ACTIVE INGREDIENT” (VASTHERA CO., LTD., priority 2022, published 2025).

Assays:
Assay type in all cases: cell-based, human
[1] = system: IL-1β, IL-6 and CXCL8 mRNA; experiment: Inhibition of blue light-induced inflammatory gene expression (real-time PCR); conditions: A2E and blue light; P<0.05; FIG. 5
Experimental: ARPE-19 cell lines were seeded in 6-well plates at a concentration of 2×10^4 cells/well and cultured for 24 hours. The process of accumulating A2E in ARPE-19 cell lines, irradiating with blue light, and treating with example 17 compound of the present invention was performed in the same manner as in Experimental Example 5. After 24 hours of irradiating with blue light, total RNA was isolated from ARPE-19 cells using Trizol reagent (Invitrogen), and total RNA was quantified using Nanodrop (Nanodrop, Thermo Scientific). Thereafter, cDNA was synthesized using […] of total RNA, and the cDNA was amplified using the primers described in Table 5 below as a template and a real-time genetic cycler LC480 (Roche) (PCR conditions: denaturation −95° C., 10 seconds; primer binding −60° C., 10 seconds; and extension −72° C., 10 seconds).
At this time, the PCR results for 18S were used as a control to correct the relative amount of genes measured in the ARPE-19 cell line, and the experimental results are shown in FIG. 5.

LC3-II = experiment: Autophagy activation in ARPE-19 (LC3-II Western, GFP-LC3 puncta); conditions: 12 h
Experimental: ARPE-19 was dispensed into a 6-well plate at a concentration of 1×10^5 cells/well and cultured for 24 hours. Then, cells were treated with example 17 compound of the present invention at concentrations of 10, 25, and 50 μM for 12 hours. Then, a cell lysis buffer containing a protease inhibitor was added to prepare a cell lysate. The LC3-II level was measured by Western immunoblotting using an anti-LC3-II antibody (Cell Signaling Technology, MA, USA). As an internal control, an antibody against β-actin (Cell Signaling Technology) was used and measured by Western immunoblotting in the same manner as above, and is shown in FIG. 6 (upper graph).
Meanwhile, intracellular autophagosome formation was observed as follows. The ARPE-19 cells were transfected with a plasmid expressing GFP-LC3 (Addgene Inc., MA, USA) using Lipofectamine™ 2000 reagent (Invitrogen, Carlsbad, CA, USA). After 48 hours of culture, the cells were treated with example 17 compound of the present invention at a concentration of 25 μM. After additional 12 hours of culture, the cells were fixed using 4% paraformaldehyde for 10 minutes. The cells were then washed three times with PBS every 5 minutes. Finally, the puncta formation of GFP-LC3 was observed using a confocal laser scanning microscope (Nikon, Tokyo, Japan). […]

p62 protein = experiment: Restoration of autophagy inhibited by A2E and blue light (p62 Western); conditions: ARPE-19, A2E accumulation and blue light; FIG. 10
Excerpt: Therefore, it was confirmed whether the compound of the present invention can restore autophagy inhibited by A2E and blue light.
During the autophagosome formation process, p62 specifically binds to a substance to be degraded and simultaneously binds to LC3 protein to form an autophagosome. When autophagy is inhibited, aggregates composed of p62 and ubiquitinated proteins are formed and p62 accumulates in the cell. Therefore, by measuring the change in the level of intracellular p62, the improvement effect of the compound of the present invention on autophagy inhibited by A2E and blue light can be evaluated, and the experiment was conducted as follows.
Specifically, ARPE-19 cells were seeded into 6-well plates at a concentration of 2×10^4 cells/well and cultured for 24 hours. To induce A2E accumulation in the ARPE-19 cell line, the cells were treated with A2E three times at a concentration of 25 μM at 48-hour intervals. 24 hours after the final A2E treatment, the cells were treated with example 17 compound twice at 24-hour intervals each. […] The amount of intracellular p62 was measured by Western immunoblotting using an anti-p62 antibody (Santa Cruz, TX, USA). The amount of intracellular β-actin was measured in the same manner using anti-β-actin antibody (Santa Cruz) and used as a control.

NF-κB (p65) = experiment: Inhibition of blue light-induced NF-κB activation (p65 Western immunoblotting); conditions: A2E and blue light; 10 and 25 μM; FIG. 4
Excerpt: When cells are stimulated by external pathogenic molecules (PAMPs), NF-κB dimers (p50-p65 dimers) are separated from IκB and activated. The separated NF-κB dimers pass through the nuclear membrane and enter the nucleus, where they bind to DNA and activate gene transcription, indicating the activation of NF-κB. Therefore, the inhibitory effect of the compound of the present invention on NF-κB activation can be evaluated by measuring changes in the cytoplasmic or nuclear levels of p65. The experiment was conducted as follows.
ARPE-19 cells were seeded in 6-well plates at a concentration of 2×10^4 cells/well and cultured for 24 hours. In order to induce A2E accumulation in the ARPE-19 cell line, cells were treated with A2E three times at a concentration of 25 μM at 48-hour intervals. 24 hours after the final A2E treatment, cells were treated with compound 17 of the present invention twice at concentrations of 10 and 25 μM at 24-hour intervals, respectively. […] The level of p65 was measured by Western immunoblotting using anti-p65 antibody (Cell Signaling Technology, MA, USA). The cytoplasmic and nuclear fractions were measured by Western immunoblotting in the same manner as above using antibodies against α-tubulin (Cell Signaling Technology) and histone H3 (Abcam, Cambridge, UK) as internal controls, respectively.

[2] = system: p62 protein phosphorylated at serine 349 (p-p62 (S349)); experiment: Autophagy activation by increase of p-p62 (S349), Western immunoblotting; conditions: indicated concentrations; FIG. 14
Experimental: The cells were treated with the test compounds at the indicated concentrations, and the autophagy activation effect through the increase of p62 protein (p-p62 (S349)) phosphorylated at serine 349 residue was measured by Western immunoblotting using an anti-p-p62 antibody, and the results are shown in FIG. 14. The increase in the intracellular P-p62 ([…]) level is one of the major indicators of autophagy activation.

Question: For `C=CCOCc1cc(-c2cc(CC=C)ccc2OC)no1` [Example 17, 3-(5-allyl-2-methoxyphenyl)-5-((allyloxy)methyl)isoxazole], which “expression of mRNA of inflammation-related genes (IL-1β, IL-6, and CXCL8)” value [1] is on record?
Answer: statistically significant reduction

Question: And the “LC3-II level (Western immunoblotting)” value (LC3-II; ARPE-19, 10, 25, 50 μM, FIG. 6 graph)?
Answer: an increase in LC3-II

Question: And the “puncta formation of GFP-LC3 (confocal microscope)” value (LC3-II; GFP-LC3 transfected ARPE-19, 25 μM, FIG. 6 photograph)?
Answer: intracellular LC3-II puncta were observed

Question: What about the p62 protein concentration (p62 protein) of the same compound?
Answer: decreased in a concentration-dependent manner

Question: And the “activation of NF-κB (movement of p65 into the nucleus)” value (NF-κB (p65))?
Answer: activation of NF-κB was inhibited

Question: What about the “autophagy activation through increase of p-p62 (S349)” value [2] of the same compound?
Answer: activated autophagy in a concentration-dependent manner
